Experimental data from PMC5218480 (PLoS ONE, 2017).

Test system: MV-4-11 cells
Test: Gene expression microarray analysis (Affymetrix PrimeView) and GSEA
Assay type: cell-based, human
Set-up: RFU PODN (11730768_x_at) / Fold change /veh PODN (11730768_x_at) / RFU LINC00158 (11744669_a_at) / Fold change /veh LINC00158 (11744669_a_at) / RFU DUSP10 (11751237_a_at) / Fold change /veh DUSP10 (11751237_a_at) / RFU ID3 (11757404_x_at) / Fold change /veh ID3 (11757404_x_at) / RFU PLEKHG5 (11737974_s_at) / Fold change /veh PLEKHG5 (11737974_s_at) / RFU LRRC4B (11730491_at) / Fold change /veh LRRC4B (11730491_at) / RFU GIMAP4 (11747438_a_at) / Fold change /veh GIMAP4 (11747438_a_at) / RFU KRT8 (11758183_x_at) / Fold change /veh KRT8 (11758183_x_at) / RFU CNN1 (11734310_a_at) / Fold change /veh CNN1 (11734310_a_at) / RFU VPS37D (11726825_at) / Fold change /veh VPS37D (11726825_at) / RFU C10orf10 (11716522_x_at) / Fold change /veh C10orf10 (11716522_x_at) / RFU KIR2DL2 /// KIR2DL4 /// KIR2DL5A /// KIR2DL5B /// KIR2DS1 /// KIR2DS2 /// KIR2DS3 /// KIR2DS4 /// KIR3DL3 /// KIR3DL3 /// KIR3DS1 (11738374_at) / Fold change /veh KIR2DL2 /// KIR2DL4 /// KIR2DL5A /// KIR2DL5B /// KIR2DS1 /// KIR2DS2 /// KIR2DS3 /// KIR2DS4 /// KIR3DL3 /// KIR3DL3 /// KIR3DS1 (11738374_at) / RFU C1QL1 (11718748_at) / Fold change /veh C1QL1 (11718748_at) / RFU TMPRSS4 (11747572_a_at) / Fold change /veh TMPRSS4 (11747572_a_at) / RFU HAMP (11756126_x_at) / Fold change /veh HAMP (11756126_x_at) / RFU RNFT2 (11725882_a_at) / Fold change /veh RNFT2 (11725882_a_at) / RFU NR4A2 (11747474_a_at) / Fold change /veh NR4A2 (11747474_a_at) / RFU ABCC12 (11746883_a_at) / Fold change /veh ABCC12 (11746883_a_at) / RFU TMEM136 (11760407_x_at) / Fold change /veh TMEM136 (11760407_x_at) / RFU CLDN22 /// WWC2 (11732394_at) / Fold change /veh CLDN22 /// WWC2 (11732394_at) / RFU HLA-DPB1 (11760878_x_at) / Fold change /veh HLA-DPB1 (11760878_x_at) / RFU SPINT1 (11716480_a_at) / Fold change /veh SPINT1 (11716480_a_at) / RFU GAP43 (11754022_s_at) / Fold change /veh GAP43 (11754022_s_at) / RFU A4GNT (11735810_at) / Fold change /veh A4GNT (11735810_at) / RFU PRB3 (11715151_x_at) / Fold change /veh PRB3 (11715151_x_at) / RFU TUBB4B (11761932_at) / Fold change /veh TUBB4B (11761932_at) / RFU CAPN14 (11732068_a_at) / Fold change /veh CAPN14 (11732068_a_at) / RFU TMCC2 (11721928_a_at) / Fold change /veh TMCC2 (11721928_a_at) / RFU IRGQ (11745062_a_at) / Fold change /veh IRGQ (11745062_a_at) / RFU FAM174B (11720279_a_at) / Fold change /veh FAM174B (11720279_a_at) / RFU TMPRSS4 (11748680_a_at) / Fold change /veh TMPRSS4 (11748680_a_at) / RFU FAM212B (11763350_a_at) / Fold change /veh FAM212B (11763350_a_at) / RFU PLEKHG5 (11743358_a_at) / Fold change /veh PLEKHG5 (11743358_a_at) / RFU ZSCAN30 (11745921_a_at) / Fold change /veh ZSCAN30 (11745921_a_at) / RFU CMKLR1 (11741424_a_at) / Fold change /veh CMKLR1 (11741424_a_at) / RFU LOC101060620 /// MAPK8IP1 (11723275_at) / Fold change /veh LOC101060620 /// MAPK8IP1 (11723275_at) / RFU SPTSSB (11747773_x_at) / Fold change /veh SPTSSB (11747773_x_at) / RFU PRSS12 (11739890_at) / Fold change /veh PRSS12 (11739890_at) / RFU BIN1 (11741810_x_at) / Fold change /veh BIN1 (11741810_x_at) / RFU WNT11 (11732464_a_at) / Fold change /veh WNT11 (11732464_a_at) / RFU C10orf10 (11716521_a_at) / Fold change /veh C10orf10 (11716521_a_at) / RFU C5orf56 (11738089_at) / Fold change /veh C5orf56 (11738089_at) / RFU CYB561 (11721691_x_at) / Fold change /veh CYB561 (11721691_x_at) / RFU ANKRD19P (11752326_a_at) / Fold change /veh ANKRD19P (11752326_a_at) / RFU OR2T12 /// OR2T33 /// OR2T8 (11738714_s_at) / Fold change /veh OR2T12 /// OR2T33 /// OR2T8 (11738714_s_at) / RFU VCAN (11748164_a_at) / Fold change /veh VCAN (11748164_a_at) / RFU JSRP1 (11732532_at) / Fold change /veh JSRP1 (11732532_at) / RFU KRTAP10-11 (11738290_x_at) / Fold change /veh KRTAP10-11 (11738290_x_at) / RFU MYO3A (11730013_a_at) / Fold change /veh MYO3A (11730013_a_at) / RFU EBF3 (11725865_a_at) / Fold change /veh EBF3 (11725865_a_at) / RFU CAMK2N1 (11719241_x_at) / Fold change /veh CAMK2N1 (11719241_x_at) / RFU C5orf56 (11738088_a_at) / Fold change /veh C5orf56 (11738088_a_at) / RFU OLFML3 (11715873_a_at) / Fold change /veh OLFML3 (11715873_a_at) / RFU LOC100653217 /// NTM (11731650_a_at) / Fold change /veh LOC100653217 /// NTM (11731650_a_at) / RFU MAPK11 (11762145_a_at) / Fold change /veh MAPK11 (11762145_a_at) / RFU FIZ1 (11724087_x_at) / Fold change /veh FIZ1 (11724087_x_at) / RFU OASL (11726364_x_at) / Fold change /veh OASL (11726364_x_at) / RFU SOX15 (11748057_x_at) / Fold change /veh SOX15 (11748057_x_at) / RFU CD79A (11719716_a_at) / Fold change /veh CD79A (11719716_a_at) / RFU HIST1H1D (11736915_at) / Fold change /veh HIST1H1D (11736915_at) / RFU CASKIN2 (11723855_a_at) / Fold change /veh CASKIN2 (11723855_a_at) / RFU LOC730098 (11760151_x_at) / Fold change /veh LOC730098 (11760151_x_at) / RFU OR4N2 (11742367_at) / Fold change /veh OR4N2 (11742367_at) / RFU PRRT2 (11749266_a_at) / Fold change /veh PRRT2 (11749266_a_at) / RFU SNX32 (11753110_a_at) / Fold change /veh SNX32 (11753110_a_at) / RFU CDHR5 (11726645_a_at) / Fold change /veh CDHR5 (11726645_a_at) / RFU RCAN1 (11760418_a_at) / Fold change /veh RCAN1 (11760418_a_at) / RFU FAM167A (11723789_a_at) / Fold change /veh FAM167A (11723789_a_at) / RFU FAM26E (11764081_at) / Fold change /veh FAM26E (11764081_at) / RFU ISYNA1 (11749810_s_at) / Fold change /veh ISYNA1 (11749810_s_at) / RFU ACY1 (11761880_at) / Fold change /veh ACY1 (11761880_at) / RFU 11764098_at / Fold change /veh 11764098_at / RFU SAMD14 (11745864_x_at) / Fold change /veh SAMD14 (11745864_x_at) / RFU NPB (11741838_a_at) / Fold change /veh NPB (11741838_a_at) / RFU TMPRSS6 (11731388_a_at) / Fold change /veh TMPRSS6 (11731388_a_at) / RFU KRTAP10-2 (11738614_at) / Fold change /veh KRTAP10-2 (11738614_at) / RFU ARHGAP8 /// PRR5-ARHGAP8 (11727945_x_at) / Fold change /veh ARHGAP8 /// PRR5-ARHGAP8 (11727945_x_at) / RFU KRTAP5-7 /// NADSYN1 (11734609_at) / Fold change /veh KRTAP5-7 /// NADSYN1 (11734609_at) / RFU RASL12 (11751679_a_at) / Fold change /veh RASL12 (11751679_a_at) / RFU CDKN2B (11736163_a_at) / Fold change /veh CDKN2B (11736163_a_at) / RFU PRF1 (11729649_at) / Fold change /veh PRF1 (11729649_at) / RFU, ZNF638 /// ZNF638-IT1 / Fold change vs veh, ZNF638 /// ZNF638-IT1 / RFU, PANK3 / Fold change vs veh, PANK3 / RFU, SH3YL1 / Fold change vs veh, SH3YL1 / RFU, ZEB2 / Fold change vs veh, ZEB2 / RFU, NRIP1 / Fold change vs veh, NRIP1 / RFU, PTTG1IP / Fold change vs veh, PTTG1IP / RFU, CAPN2 / Fold change vs veh, CAPN2 / RFU, MED14 / Fold change vs veh, MED14 / RFU, SNORA58 / Fold change vs veh, SNORA58 / RFU, C1orf63 / Fold change vs veh, C1orf63 / RFU, LRRFIP1 / Fold change vs veh, LRRFIP1 / RFU, NDUFAF7 / Fold change vs veh, NDUFAF7 / RFU, SLC12A2 / Fold change vs veh, SLC12A2 / RFU, IBTK / Fold change vs veh, IBTK / RFU, ESF1 / Fold change vs veh, ESF1 / Fold change vs veh, TMEM50B / RFU, TAOK1 / Fold change vs veh, TAOK1 / RFU, ACBD3 / Fold change vs veh, ACBD3 / RFU, TMA16 / Fold change vs veh, TMA16 / RFU, RWDD3 / Fold change vs veh, RWDD3 / RFU, BCAT1 / Fold change vs veh, BCAT1 / RFU, EDEM3 / Fold change vs veh, EDEM3 / RFU, TMEM33 / Fold change vs veh, TMEM33 / RFU, WDR75 / Fold change vs veh, WDR75 / RFU, AHCTF1 / Fold change vs veh, AHCTF1 / RFU, TFRC / Fold change vs veh, TFRC / RFU, ZDHHC17 / Fold change vs veh, ZDHHC17 / RFU, NOM1 / Fold change vs veh, NOM1 / RFU, ARL8B / Fold change vs veh, ARL8B / RFU, ZBTB11 / Fold change vs veh, ZBTB11 / RFU, TAMM41 / Fold change vs veh, TAMM41 / RFU, KIAA1704 /// LOC100996395 / Fold change vs veh, KIAA1704 /// LOC100996395 / RFU, ING1 / Fold change vs veh, ING1 / RFU, TRMT61B / Fold change vs veh, TRMT61B / RFU, FUBP3 / Fold change vs veh, FUBP3 / RFU, TP53 / Fold change vs veh, TP53 / RFU, TNKS2 / Fold change vs veh, TNKS2 / RFU, ZFP14 / Fold change vs veh, ZFP14 / RFU, ACTR2 / Fold change vs veh, ACTR2 / RFU, PPP3R1 / Fold change vs veh, PPP3R1 / RFU, PIK3R1 / Fold change vs veh, PIK3R1 / RFU, HNRNPA1 / Fold change vs veh, HNRNPA1 / RFU, RNF170 / Fold change vs veh, RNF170 / RFU, ZNF28 / Fold change vs veh, ZNF28 / RFU, RNGTT / Fold change vs veh, RNGTT / RFU, OGT / Fold change vs veh, OGT / RFU, BRD1 / Fold change vs veh, BRD1 / RFU, MARS / Fold change vs veh, MARS / RFU, ZNF655 / Fold change vs veh, ZNF655 / RFU, FAHD1 / Fold change vs veh, FAHD1 / RFU, BDP1 / Fold change vs veh, BDP1 / RFU, LRRCC1 / Fold change vs veh, LRRCC1 / RFU, ARID1A / Fold change vs veh, ARID1A / RFU, ZNF146 / Fold change vs veh, ZNF146 / RFU, ZNF330 / Fold change vs veh, ZNF330 / RFU, GPN3 / Fold change vs veh, GPN3 / RFU, C9orf123 / Fold change vs veh, C9orf123 / RFU, N4BP2L2 / Fold change vs veh, N4BP2L2 / RFU, ARFIP1 / Fold change vs veh, ARFIP1 / RFU, FAM179B / Fold change vs veh, FAM179B / RFU, BCL10 / Fold change vs veh, BCL10 / RFU, UHRF1BP1L / Fold change vs veh, UHRF1BP1L / RFU, BET1 / Fold change vs veh, BET1 / RFU, CNOT2 / Fold change vs veh, CNOT2 / RFU, ZNF268 / Fold change vs veh, ZNF268 / Fold change vs veh, ZNF507 / RFU, DGCR2 / Fold change vs veh, DGCR2 / RFU, WDSUB1 / Fold change vs veh, WDSUB1 / Fold change vs veh, HSP90B1 /// MIR3652 / RFU, ADSS / Fold change vs veh, ADSS / RFU, GK / Fold change vs veh, GK / RFU, ZNF148 / Fold change vs veh, ZNF148 / RFU, TAF9 / Fold change vs veh, TAF9 / RFU, SLC1A5 / Fold change vs veh, SLC1A5 / RFU, SLMO2 / Fold change vs veh, SLMO2 / RFU, ABCC4 / Fold change vs veh, ABCC4 / RFU, LOC101060439 /// RAP1B / Fold change vs veh, LOC101060439 /// RAP1B / RFU, RFX7 / Fold change vs veh, RFX7 / RFU, GTPBP10 / Fold change vs veh, GTPBP10 / RFU, CNEP1R1 / Fold change vs veh, CNEP1R1 / RFU, BIVM-ERCC5 /// ERCC5 / Fold change vs veh, BIVM-ERCC5 /// ERCC5 / RFU, ILF3 / Fold change vs veh, ILF3 / RFU 11762660_at / Fold change /veh 11762660_at / RFU VCAN (11757783_s_at) / Fold change /veh VCAN (11757783_s_at) / RFU DDX43 (11728927_at) / Fold change /veh DDX43 (11728927_at) / RFU KRT8 (11758188_x_at) / Fold change /veh KRT8 (11758188_x_at) / RFU NKD1 (11759106_at) / Fold change /veh NKD1 (11759106_at) / RFU SRD5A1 (11742802_a_at) / Fold change /veh SRD5A1 (11742802_a_at) / RFU TPSAB1 /// TPSB2 (11721975_s_at) / Fold change /veh TPSAB1 /// TPSB2 (11721975_s_at) / RFU GSTM3 (11746129_a_at) / Fold change /veh GSTM3 (11746129_a_at) / RFU IL23R (11737362_x_at) / Fold change /veh IL23R (11737362_x_at) / RFU TMEM51 (11727254_a_at) / Fold change /veh TMEM51 (11727254_a_at) / RFU PIWIL2 (11732686_x_at) / Fold change /veh PIWIL2 (11732686_x_at) / RFU ORM1 (11744905_x_at) / Fold change /veh ORM1 (11744905_x_at) / RFU CCDC152 (11743942_at) / Fold change /veh CCDC152 (11743942_at) / RFU ECM1 (11717891_a_at) / Fold change /veh ECM1 (11717891_a_at) / RFU IL23R (11748794_a_at) / Fold change /veh IL23R (11748794_a_at) / RFU TNFAIP8L3 (11732012_x_at) / Fold change /veh TNFAIP8L3 (11732012_x_at) / RFU MBOAT4 (11741988_at) / Fold change /veh MBOAT4 (11741988_at) / RFU 11764193_at / Fold change /veh 11764193_at / RFU TMEM53 (11763286_at) / Fold change /veh TMEM53 (11763286_at) / RFU MAGEB2 (11727129_at) / Fold change /veh MAGEB2 (11727129_at) / RFU TMEM200A (11744735_a_at) / Fold change /veh TMEM200A (11744735_a_at) / RFU CCDC152 (11751479_a_at) / Fold change /veh CCDC152 (11751479_a_at) / RFU FAM211A (11726209_a_at) / Fold change /veh FAM211A (11726209_a_at) / RFU RGS16 (11746705_a_at) / Fold change /veh RGS16 (11746705_a_at) / RFU VCAN (11755009_s_at) / Fold change /veh VCAN (11755009_s_at) / RFU RHOB (11743442_s_at) / Fold change /veh RHOB (11743442_s_at) / RFU RGS16 (11720943_a_at) / Fold change /veh RGS16 (11720943_a_at) / RFU RGS16 (11720944_at) / Fold change /veh RGS16 (11720944_at) / RFU, VPS4B / Fold change vs veh, VPS4B / RFU, CREB1 / Fold change vs veh, CREB1 / RFU, DNAJC13 / Fold change vs veh, DNAJC13 / RFU, GNAQ / Fold change vs veh, GNAQ / RFU, CDK5R1 / Fold change vs veh, CDK5R1 / RFU, ZRANB3 / Fold change vs veh, ZRANB3 / RFU, CUL4A / Fold change vs veh, CUL4A / RFU, CCNY / Fold change vs veh, CCNY / RFU, UFL1 / Fold change vs veh, UFL1 / RFU, COG3 / Fold change vs veh, COG3 / RFU, DIAPH2 / Fold change vs veh, DIAPH2 / RFU, SKA2 / Fold change vs veh, SKA2 / RFU, AFF3 / Fold change vs veh, AFF3 / RFU, LMF1 / Fold change vs veh, LMF1 / RFU, IPO11 / Fold change vs veh, IPO11 / RFU, DFFB / Fold change vs veh, DFFB / RFU, FOXP1 / Fold change vs veh, FOXP1 / RFU, CARD8 / Fold change vs veh, CARD8 / RFU, STRN3 / Fold change vs veh, STRN3 / RFU, ADK / Fold change vs veh, ADK / RFU, RASSF2 / Fold change vs veh, RASSF2 / RFU, WIPF1 / Fold change vs veh, WIPF1 / RFU, LARP1B / Fold change vs veh, LARP1B / RFU, RASA1 / Fold change vs veh, RASA1 / RFU, RB1 / Fold change vs veh, RB1 / RFU, PPFIA1 / Fold change vs veh, PPFIA1 / RFU, MAT2A / Fold change vs veh, MAT2A / RFU, CCT5 / Fold change vs veh, CCT5 / RFU, WDR92 / Fold change vs veh, WDR92 / RFU, CUX1 / Fold change vs veh, CUX1 / RFU, TTC7A / Fold change vs veh, TTC7A / RFU, TMEM135 / Fold change vs veh, TMEM135 / RFU, DEPTOR / Fold change vs veh, DEPTOR / RFU, CPM / Fold change vs veh, CPM / RFU, DNAJB6 / Fold change vs veh, DNAJB6 / RFU, CACNA2D3 / Fold change vs veh, CACNA2D3 / RFU, DTX4 / Fold change vs veh, DTX4 / RFU, TFCP2 / Fold change vs veh, TFCP2 / RFU, GMCL1 /// GMCL1P1 / Fold change vs veh, GMCL1 /// GMCL1P1 / RFU, AEBP2 / Fold change vs veh, AEBP2 / RFU, SNHG1 /// SNORD22 /// SNORD25 /// SNORD26 /// SNORD27 /// SNORD28 /// SNORD29 /// SNORD31 / Fold change vs veh, SNHG1 /// SNORD22 /// SNORD25 /// SNORD26 /// SNORD27 /// SNORD28 /// SNORD29 /// SNORD31 / Fold change (Aza/veh), C12orf56 (ProbeSet 11735607_a_at) / Fold change (ACY-1035/veh), C12orf56 (ProbeSet 11735607_a_at) / Fold change (Aza/veh), FGFR1OP (ProbeSet 11751329_s_at) / Fold change (ACY-1035/veh), FGFR1OP (ProbeSet 11751329_s_at) / Fold change (Aza/veh), VPS36 (ProbeSet 11739960_a_at) / Fold change (ACY-1035/veh), VPS36 (ProbeSet 11739960_a_at) / RFU SYPL1 (11715823_x_at) / Fold change /veh SYPL1 (11715823_x_at) / RFU IGFBP7 (11715501_s_at) / Fold change /veh IGFBP7 (11715501_s_at) / RFU REEP3 (11722064_at) / Fold change /veh REEP3 (11722064_at) / RFU IGLL1 (11728026_x_at) / Fold change /veh IGLL1 (11728026_x_at): dose or concentration left out as unconfirmed
Conditions: ProbeSet 11739696_s_at; LIST D

## Nc1ccc(-c2cccs2)cc1NC(=O)c1ccc2c(c1)cc(C1CC1)n2CCN1CCOCC1 [ACY-1035]
  Fold change vs veh, AFF3: 1.00
